One compound from article PMC10096344 (Molecules, 2023) can be followed below.

Each structure is given as a SMILES string.

This test concerns P. aeruginosa (ATCC27853). As to the kind of experiment: Transcriptome assay (RNA-seq). The format is cell-based, Pseudomonas aeruginosa. The following applies: LP4C 10 μg/mL vs Vehicle Treatment Group. As for the experimental part: The RNA sequencing was performed using Illumina HiSeq4000 according to the operation instructions (Illumina, CA, USA). Differential gene expression analysis of LP4C treatment and control groups was conducted; KEGG signaling pathway analysis was performed to map the connection of multiple genes.

In the case of `N#CC1=C(N)Oc2c(c(=O)oc3ccccc23)C1c1cc(C(F)(F)F)cc(C(F)(F)F)c1` (stereo not shown) [LP4C], the “most enriched pathway of DEGs (transcriptome)” value was “the DEGs number of pyrimidine metabolism was the most enriched”.
